The source of these data is patent US20040235098A1, “Sulfotransferase sequence variants” (Mayo Foundation for Medical Education and Research, a …, priority 1998, published 2004).

The target of assay [1] is T1, SULT1A1*1 (Homo sapiens, UniProt P50225).
T1 construct: made in house; host or cells: COS-1 cells, pCR3.1 vector, unpurified cytosol
Kind of assay: Substrate kinetics of recombinant SULT1A1*1. Type of assay: biochemical. The conditions noted are these: 4 μM 4-nitrophenol, mean±SEM of nine, read-out: Apparent Km PAPS. As for the experimental part:
(§1) Res. Commun., 198:1119-1127 (1994).
(§2) Expression constructs for each of the common (frequencies≧1%) allozymes for SULT1A1 and SULT1A2 were used to transfect COS-1 cells. Selected biochemical and physical properties of the expressed enzymes were then determined. Those properties included apparent Km values for the two cosubstrates for the enzyme reaction (4-nitrophenol and PAPS); thermal stability; and sensitivity to inhibition by DCNP. The substrate kinetic experiments were performed in two steps. Initially a wide range of concentrations of 4-nitrophenol that varied over at least three orders of magnitude was tested, followed by detailed study of concentrations close to the apparent Km value for that allozyme. […] Data from these experiments were then used to construct double inverse plots that were used to calculate apparent Km values (Table 5).

Assay [2] has as its target SULT1A1*2 (Homo sapiens, UniProt P50225, R213H/V223M). Nature of the assay: Substrate kinetics of recombinant SULT1A1*2. It is filed as biochemical. The following applies: 4 μM 4-nitrophenol, mean±SEM of nine, read-out: Apparent Km PAPS. How it is done: as §1, §2
Assay [3] deals with T2, SULT1A2*2 (Homo sapiens, UniProt P50226, I7T/N235T).
T2 construct: made in house; host or cells: COS-1 cells, pCR3.1 vector, unpurified cytosol
Nature of the assay: Substrate kinetics of recombinant SULT1A2*2. The conditions noted are these: mean±SEM of nine. It is filed as biochemical. As for the experimental part:
as §1, §2

Assay [4] concerns the target T3, SULT1A2*1 (Homo sapiens, UniProt P50226).
T3 construct: made in house; host or cells: COS-1 cells, pCR3.1 vector, unpurified cytosol
Kind of assay: Substrate kinetics of recombinant SULT1A2*1. It is filed as biochemical. The following applies: 100 μM 4-nitrophenol, mean±SEM of nine. As for the experimental part: as §1, §2

The target of assay [5] is T4, SULT1A2*3 (Homo sapiens, UniProt P50226, P19L).
T4 construct: made in house; host or cells: COS-1 cells, pCR3.1 vector, unpurified cytosol
Nature of the assay: Substrate kinetics of recombinant SULT1A2*3. It is filed as biochemical. The following applies: 50 μM 4-nitrophenol, mean±SEM of nine, read-out: Apparent Km PAPS. As for the experimental part:
as §1, §2

Assay [6] deals with T5, SULT1A1*3 (Homo sapiens, UniProt P50225).
T5 construct: made in house; host or cells: COS-1 cells, pCR3.1 vector, unpurified cytosol
Nature of the assay: Substrate kinetics of recombinant SULT1A1*3. Type of assay: biochemical. The conditions noted are these: 4 μM 4-nitrophenol, mean±SEM of nine, read-out: Apparent Km PAPS. How it is done: as §1, §2

In assay [7] the target is T1, SULT1A1*1. Kind of assay: DCNP inhibition of recombinant SULT1A1*1 (COS-1 cell cytosol). The following applies: 4 μM 4-nitrophenol, mean±SEM of nine determinations. Type of assay: biochemical. How it is done: as §1
(§3) Finally, sensitivity of the recombinant proteins to inhibition by DCNP was determined. Sixteen different concentrations of DCNP, ranging from 0.01 to 1000 μM, were tested with each recombinant allozyme.

The subject of assay [8] is TS PST. The conditions noted are these: thermostable phenol-preferring form; cited from earlier work.
Assay [9] addresses T6, SULT1A3 (Homo sapiens, UniProt P0DMM9).
T6 construct: made in house; host or cells: COS-1 cells, pCR3.1 vector, unpurified cytosol
Nature of the assay: DCNP inhibition of recombinant SULT1A3 (COS-1 cell cytosol). Type of assay: biochemical. The following applies: 3000 μM 4-nitrophenol, mean±SEM of nine determinations. As for the experimental part:
as §1, §3

The target in assay [10] is T3, SULT1A2*1. Kind of assay: DCNP inhibition of recombinant SULT1A2*1 (COS-1 cell cytosol). Type of assay: biochemical. The conditions noted are these: 100 μM 4-nitrophenol, mean±SEM of nine determinations. As for the experimental part:
as §1, §3

The target of assay [11] is T5, SULT1A1*3. Nature of the assay: DCNP inhibition of recombinant SULT1A1*3 (COS-1 cell cytosol). The conditions noted are these: 4 μM 4-nitrophenol, mean±SEM of nine determinations. Type of assay: biochemical. As for the experimental part:
as §1, §3

Assay [12] has as its target T2, SULT1A2*2. Kind of assay: DCNP inhibition of recombinant SULT1A2*2 (COS-1 cell cytosol). It is filed as biochemical. The following applies: 3000 μM 4-nitrophenol, mean±SEM of nine determinations. How it is done:
as §1, §3

The target of assay [13] is TL PST (Homo sapiens, UniProt P0DMM9). The conditions noted are these: thermolabile monoamine-preferring form; cited from earlier work.
Assay [14] has as its target T4, SULT1A2*3. Nature of the assay: DCNP inhibition of recombinant SULT1A2*3 (COS-1 cell cytosol). It is filed as biochemical. The conditions noted are these: 50 μM 4-nitrophenol, mean±SEM of nine determinations. As for the experimental part:
as §1, §3

The subject of assay [15] is SULT1A2. The following applies: 100 μM 4-nitrophenol; cytosol from six pooled liver samples; three attempts.
Experimental: Human hepatic “surgical waste” tissue was obtained from 61 patients undergoing clinically-indicated hepatectomies or open hepatic biopsies and was stored at −80° C. These frozen hepatic tissue samples were homogenized in 5 mM potassium phosphate buffer, pH 6.5, and centrifuged at 100,000×g for 1 hr to obtain high-speed supernatant (HSS) cytosolic preparations. […] All tissue samples were obtained under guidelines approved by the Mayo Clinic Institutional Review Board.
Unless otherwise stated, concentrations of 4-nitrophenol and PAPS were 4 μM and 0.4 μM, respectively. […] Enzyme activity was expressed as nmoles of sulfate conjugated product formed per hr of incubation. Protein concentrations were measured by the dye-binding method of Bradford with bovine serum albumin (BSA) as a standard.
Therefore, 100 μM 4-nitrophenol was used as a substrate with cytosol from six pooled liver samples in an attempt to measure SULT1A2 activity.
Assay [16] deals with T6, SULT1A3. Nature of the assay: Substrate kinetics of recombinant SULT1A3. It is filed as biochemical. The following applies: 3.9 to 3000 μM 4-nitrophenol, mean±SEM of nine.

T6 sequence (P0DMM9 whole entry): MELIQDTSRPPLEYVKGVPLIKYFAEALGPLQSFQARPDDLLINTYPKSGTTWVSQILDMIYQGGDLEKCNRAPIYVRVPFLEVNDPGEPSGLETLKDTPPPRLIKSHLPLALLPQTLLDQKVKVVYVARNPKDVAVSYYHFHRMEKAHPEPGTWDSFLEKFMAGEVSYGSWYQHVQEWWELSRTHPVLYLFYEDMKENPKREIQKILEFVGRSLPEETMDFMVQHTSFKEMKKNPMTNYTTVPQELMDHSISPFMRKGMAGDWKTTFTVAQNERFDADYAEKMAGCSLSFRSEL
T2 sequence (P50226 whole entry I7T/N235T): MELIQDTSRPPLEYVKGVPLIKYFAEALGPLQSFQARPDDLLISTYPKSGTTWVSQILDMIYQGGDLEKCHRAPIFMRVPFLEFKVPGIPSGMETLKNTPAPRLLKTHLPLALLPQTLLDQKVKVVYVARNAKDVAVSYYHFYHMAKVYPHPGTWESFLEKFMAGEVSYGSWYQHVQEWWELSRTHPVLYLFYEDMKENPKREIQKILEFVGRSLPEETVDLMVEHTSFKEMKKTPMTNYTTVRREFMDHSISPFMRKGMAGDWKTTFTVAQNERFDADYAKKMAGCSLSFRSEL
T4 sequence (P50226 whole entry P19L): as the sequence (P50226 whole entry I7T/N235T) above, with T7I, P19L, T235N counted along it
TL PST, sequence (P0DMM9 whole entry): as the sequence (P0DMM9 whole entry) above
SULT1A1*2, sequence (P50225 whole entry R213H/V223M): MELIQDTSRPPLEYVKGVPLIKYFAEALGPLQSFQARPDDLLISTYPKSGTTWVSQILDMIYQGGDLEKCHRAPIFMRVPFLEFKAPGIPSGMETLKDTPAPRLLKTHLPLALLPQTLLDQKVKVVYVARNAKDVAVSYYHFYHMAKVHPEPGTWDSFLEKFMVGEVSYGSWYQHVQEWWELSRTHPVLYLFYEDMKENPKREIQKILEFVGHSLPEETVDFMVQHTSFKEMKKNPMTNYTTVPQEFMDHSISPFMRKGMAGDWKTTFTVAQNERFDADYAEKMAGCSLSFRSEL

As a reminder, the Km is the substrate concentration at which the rate is half of its maximum. On to `Nc1ncnc2c1ncn2[C@@H]1O[C@H](COP(=O)(O)OS(=O)(=O)O)[C@@H](OP(=O)(O)O)[C@H]1O` [PAPS, 3′-phosphoadenosine-5′-phosphosulfate], for which the Michaelis constant (Km) came out at 1.21 ± 0.02 µM in assay [1]; 0.98 ± 0.03 µM in assay [2]; 0.5 ± 0.001 µM in assay [3] (3000 μM 4-nitrophenol, read-out: Apparent Km PAPS); 0.05 ± 0.001 µM in [4] (read-out: Apparent Km PAPS); 0.28 ± 0.006 µM in assay [5]; 0.17 ± 0.02 µM in assay [6]. In addition, the “Apparent Km PAPS” value in assay [4] is “approximately an order of magnitude lower”.
The term IC50 denotes the concentration at which inhibition is half-maximal. For `O=[N+]([O-])c1cc(Cl)c(O)c(Cl)c1` [DCNP, 2,6-dichloro4-nitrophenol], the half-inhibitory concentration (IC50) was determined as 1.44 ± 0.11 µM in assay [7]; 86.9 ± 6 µM in [9]; 6.94 ± 0.55 µM in assay [10]; 1.32 ± 0.27 µM in assay [11]; 44.4 ± 1.5 µM in [12]; 0.97 ± 0.001 µM in [14]. Moreover, the entries for the “sensitivity to inhibition by DCNP” value in assay [8] and in [13] were “sensitive to inhibition” and “relatively insensitive”, respectively. For the same compound, the “DCNP Inhibition IC50” value was “least sensitive to inhibition” in assay [9] and “most” in [14].
As to `O=[N+]([O-])c1ccc(O)cc1` [4-nitrophenol], the “Apparent Km 4-Nitrophenol” value in assay [3] (1.0 to 1000 μM 4-nitrophenol) and in assay [16] was “very high” throughout. Also, in [15], the “SULT1A2 activity (sulfation of 4-nitrophenol)” value is “no activity was detected”.
